Measurements: US20240165129A1, “METHODS OF TREATING PAIN AND DEPRESSION” (priority 2022, published 2024)
Read-outs that look alike come from different tables or passages of the source.

Experiments:
[1] = molecular target: T1, homomeric ASIC3 (Rattus norvegicus, UniProt O35240); assay: Patch-clamp recording of ASIC3 currents in CHO cells with transient expression
T1 sequence (O35240 1-533): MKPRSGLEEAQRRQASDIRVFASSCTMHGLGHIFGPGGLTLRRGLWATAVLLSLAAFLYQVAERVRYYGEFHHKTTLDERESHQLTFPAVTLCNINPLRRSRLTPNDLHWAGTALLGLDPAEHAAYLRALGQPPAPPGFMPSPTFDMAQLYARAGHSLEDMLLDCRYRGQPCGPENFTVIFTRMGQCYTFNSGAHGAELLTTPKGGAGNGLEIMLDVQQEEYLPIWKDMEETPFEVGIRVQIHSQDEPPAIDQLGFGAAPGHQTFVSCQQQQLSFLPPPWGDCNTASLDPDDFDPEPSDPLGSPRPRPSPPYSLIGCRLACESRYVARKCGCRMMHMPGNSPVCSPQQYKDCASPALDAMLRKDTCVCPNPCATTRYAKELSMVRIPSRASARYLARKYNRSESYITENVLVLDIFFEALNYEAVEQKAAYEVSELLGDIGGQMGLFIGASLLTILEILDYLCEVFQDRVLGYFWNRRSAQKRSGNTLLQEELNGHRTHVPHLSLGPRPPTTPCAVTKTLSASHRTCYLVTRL
Protocol: Chinese hamster ovary (CHO) cells were cultured in F12-K medium (Invitrogen) plus 10% fetal bovine serum, 50 units/nal penicillin, and 50 μg/m1 streptomycin. At ˜50% confluence, CHO cells were co-transfected with cDNAs for rat ASIC1β, ASIC2a, or ASIC3, and that for GFP. GFP-positive cells were used for electrophysiological recordings 24-72 h after transient transfection.
ASIC currents were recorded using patch-clamp techniques. Pipette solution contained (mM): 140 CsF, 1 CaCl2, 2 MgCl2, 11 EGTA, 2 tetraethylammonium chloride, 10 HEPES and 4 MgATP, pH 7.3 adjusted with CsOH, 290-300 mOsm. Extracellular Fluid (ECF) contained (mM): 140 NaCl, 5.4 KCl, 2 CaCl2, 1 MgCl2, 10 glucose, and 10 HEPES (320-330 mOsm). A multi-barrel perfusion system (SF-77 Warner Instruments, Hamden, CT) was used to obtain a rapid exchange of ECFs. Currents were recorded with Axopatch 200B amplifier, filtered at 2 kHz, and digitized at 5 kHz using Digidata 1332A. ASIC currents were induced by rapid perfusion of the cells with acidic ECF for 4 seconds. Unless otherwise stated, cells were clamped at a holding potential of −60 mV. […] Data were excluded for statistical analysis when access resistance was >10 MΩ or leak current was >100 pA.
Therefore, the study used pH 6.0 and 4.5 to activate ASIC1β and ASIC2a currents, respectively. […]

[2] = system: mice (depression-like behavior); assay: Sucrose preference and chronic (unpredictable) mild stress; type: in vivo, mouse
Protocol: Sucrose preference is assessed in individually housed, stressed and unstressed mice. Briefly, two bottles (one 8% sucrose and one water) are placed in each cage for 3 d; 2 d to habituate and 1 d to assess sucrose preference. The locations of the bottles are rotated each 24-h period. At the beginning and end of the final 12-h period both bottles are weighed, and sucrose preference is defined as sucrose solution consumed/total liquid consumed×100%. Unstressed mice only undergo the 3 d sucrose preference assessment. Stressed mice also undergo 6 d of unpredictable stressors in the following order: restraint (3 h), wetted bedding (12 h), restraint (3 h), 45° angle cage tilt (12 h), paired housing with an unfamiliar mouse (1 h), exposure to a predator odor (1 h) (trimethylthiazoline, Pherotech International). Sucrose preference is then assessed during the final overnight period as described above.

Structure (SMILES): CC(C)CCC[C@@H](C)[C@H]1CC[C@H]2[C@@H]3C[C@@H](O)[C@@]4(O)C[C@@H](O)CC[C@]4(C)[C@H]3CC[C@]12C [Triol, cholestane-3β, 5α, 6β-triol]
- inhibition at 10 µM ([1]; pH 5.5, read-out: inhibition of ASIC3 peak current component): ~23%
- inhibition at 10 µM ([1]; pH 5.5, read-out: inhibition of ASIC3 sustained current component): ~54%
- depression-like behavior following unpredictable mild stress [2]: decreased levels of depression-like behavior
